Experimental data: paper PMC7962978, “PSMA-D4 Radioligand for Targeted Therapy of Prostate Cancer: Synthesis, Characteristics and Preliminary Assessment of Biological Properties” (International Journal of Molecular Sciences, 2021)

Legend:
LNCaP tumor-bearing mice [1] = assay: Cerenkov luminescence imaging (CLI) of LNCaP tumor-bearing mice; assay type: in vivo; details: 2-48 h p.i.
Description: The PhotonIMAGER Optima system (Biospace Lab, Nesles-la-Vallée, France) was used for the non-invasive detection, localization, and quantification of yttrium-90 signal from live animals based on Cerenkov luminescence imaging. It was feasible due to high-energy β^− particle emission produces continuous spectrum light photons or Cerenkov radiation. Optical imaging of [^90Y]Y-PSMA-D4 in LNCaP cell grafted mice was performed contemporaneously with ex vivo studies. The animals were placed individually in an induction chamber, where anaesthesia was induced with 5% isoflurane (Iso-Vet, Piramal Healthcare UK Limited, West Drayton, UK) in 100% oxygen with a delivery rate of 2 L min^−1 until loss of righting reflex. After induction, the animals were moved to the optical chamber. Anaesthesia was then maintained with 1.5–2% isoflurane in 100% oxygen with a flow of 1.5 L min^−1 administered through a facemask connected to a coaxial circuit. Body temperature was maintained at 37 °C by a heating table inside the chamber. At recovery, all animals received 100% oxygen until recovery of righting reflex. No mice were restrained during anaesthesia.

LNCaP tumor-bearing mice [2] = assay: Ex vivo biodistribution in mice bearing LNCaP tumor
Description: An experimental tumor murine model was induced using LNCaP cell, which grew to 80–90% confluence before trypsinization and formulation in Matrixgel™ Basement Membrane Matrix (Bedford, MA, USA) for implantation into mice. The mice were subcutaneously injected in the shoulder with 200 mcL bolus containing a suspension of 10^6 freshly harvested cell line LNCaP in Matrixgel™. This procedure was performed under anaesthesia with 2% isoflurane. The animals were kept under pathogen-free condition, and experiments were performed 2–3 weeks later when a tumor reached a volume of approximately 150 ± 60 mm^3. Then, the animals were randomized into two groups (25 mice per group, five mice per time point): Group 1, treated with a single intravenous injection of [^90Y]Y-PSMA-D4 (0.1 mL, 0.1 mcg, 15.5 MBq, SA 16.7 GBq mg^−1 = 17.2 GBq mcmol^−1) and Group 2, treated with a single intravenous injection of [^47Sc]Sc-PSMA-D4 (0.1 mL, 0.19 mcg, 10 MBq, SA 4.8 GBq mg^−1 = 4.57 GBq mcmol^−1).
At 1, 2, 4, 6, 24, and 48 h after injection, the animals were euthanized by cervical dislocation and dissected. Selected organs and tissues were assayed for their radioactivity and weighted. The physiological distribution was calculated and expressed in terms of the percentage of administrated radioactivity found in each of the selected organs or tissues per gram (%ID g^−1).
Results are provided as mean ± SD. The results of physiological distribution are presented as a percentage of the dose administered per gram of tissue (%ID g^−1) as average value with standard deviation (%ID g^−1; mean ± standard deviation (SD)) with n representing the number of animals per group. Data were statistically analyzed using GraphPad Prism version 8.0.0 for Window.

[3] = Lipophilicity determination (logD), shake-flask method; assay type: physicochemical; details: n-octanol / PBS pH 7.4, shake-flask
Description: The partition coefficient logD of the radioligands was determined by the shake-flask method. The solution of 10 to 50 MBq of radiolabeled PSMA ligands (D-4, 617, 11, I&T) in 1.0 mL of phosphate-buffered saline (PBS, pH 7.4) was added to 1.0 mL of presaturated n-octanol solution (n = 3). Vials were shaken vigorously for 10 min. To achieve quantitative phase separation, the vials were centrifuged at 1600 rpm for 5 min. The radioactivity concentration in a defined volume of both the aqueous and the organic phase in six replicates each was measured in a γ-counter (Wizard 1470, Wallac, Turku, Finland). The partition coefficient was calculated as the logarithm of the ratio between counts per minute (cpm) measured in the n-octanol phase to the PBS phase counts.

PSMA antigen = biological target: T1, PSMA antigen (Homo sapiens, UniProt Q04609); assay: Saturation radioligand binding assay on LNCaP (PSMA positive) and PC3 (PSMA negative) cell membranes
T1 construct: PSMA antigen expressed on LNCaP cell membranes; endogenous in cells; host or cells: LNCaP cell membranes (PC3 membranes as PSMA-negative control)
T1 sequence (Q04609 whole entry): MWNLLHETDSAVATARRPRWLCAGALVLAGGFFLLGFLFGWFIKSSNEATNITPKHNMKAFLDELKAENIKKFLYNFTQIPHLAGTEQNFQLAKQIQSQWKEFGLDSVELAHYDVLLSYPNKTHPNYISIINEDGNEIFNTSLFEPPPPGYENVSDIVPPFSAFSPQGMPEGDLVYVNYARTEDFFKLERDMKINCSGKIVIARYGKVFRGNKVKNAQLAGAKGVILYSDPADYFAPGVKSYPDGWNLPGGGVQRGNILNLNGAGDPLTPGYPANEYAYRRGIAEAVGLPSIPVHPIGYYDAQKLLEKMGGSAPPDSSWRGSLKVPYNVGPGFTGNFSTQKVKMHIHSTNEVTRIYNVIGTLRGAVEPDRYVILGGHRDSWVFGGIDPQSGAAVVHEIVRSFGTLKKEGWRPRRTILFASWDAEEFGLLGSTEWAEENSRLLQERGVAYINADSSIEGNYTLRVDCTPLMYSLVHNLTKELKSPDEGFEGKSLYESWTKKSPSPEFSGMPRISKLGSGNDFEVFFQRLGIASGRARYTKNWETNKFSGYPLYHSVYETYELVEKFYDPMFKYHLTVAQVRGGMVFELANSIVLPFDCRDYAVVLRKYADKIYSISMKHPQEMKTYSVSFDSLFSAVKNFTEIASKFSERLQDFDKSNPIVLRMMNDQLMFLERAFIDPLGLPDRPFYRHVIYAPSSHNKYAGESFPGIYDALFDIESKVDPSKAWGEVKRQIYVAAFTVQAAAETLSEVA
Description: The equilibrium constant (KD) was determined by a saturation binding experiment performed in PSMA positive LNCaP and PSMA negative PC3 cell membranes isolated according to the procedure developed by Fichna et al.. The 50 mcL of LNCaP and PC3 cell membranes were seeded on special MultiScreen™ 96 well filter plates (Merck, Warsaw, Poland) and incubated for 2 h with increasing concentration of [^177Lu]Lu-PSMA-D4, [^90Y]Y-PSMA-D4, and […] (0.016–194 nM) at 37 °C. After incubation, the unbound radiocomplexes were filtered under vacuum, and the membranes were washed twice using PBS. The filters containing membranes with the attached radiotracer were extruded into tubes using MultiScreen Multile Punch (Merck). The number of associated inhibitors was determined by measuring the radioactivity of squeezed filters using Wallac Wizard 1470 γ counter. The KD and Bmax were calculated by nonlinear regression using the GraphPad Prism statistic program.

LNCaP cells = assay: Cell uptake (total binding) and internalization in LNCaP cells; assay type: cell-based, human; details: 37 °C, 2 h
Description: To determine cell uptake and internalization of [^177Lu]Lu-PSMA-D4 and [^90Y]Y-PSMA-D4, LNCaP cells (5 × 10^5 cells well^−1) were incubated in un-supplemented RPMI 1640 medium with one concentration of tested radioligands on 12-well plates in 37 °C per 2 h. After the appropriate time, the medium was removed, and cells were washed twice using phosphate buffer saline (PBS, IITD PAN, Wroclaw, Poland). The cells were treated twice with 1 mL of 50 mM glycine in 0.1 M NaCl at a pH of 2.8 and incubated for 5 min at room temperature to collect extracellularly bound compound. The internalization was determined by measuring the radioactivity of 1mL of 1 M NaOH used for cell lysis. Total binding was calculated as a sum of the membrane and internalized fractions measured using Wallac Wizard 1470 γ counter. As a control, [^177Lu]Lu-PSMA-617 and [^68Ga]Ga-PSMA-11 were used.

T/B (ratio tumor to blood) (LNCaP tumor-bearing mice [2]; 2 h after i.v. injection): 323.7 | T/K (ratio tumor to kidneys) (LNCaP tumor-bearing mice [2]; 2 h after i.v. injection): 7.6 | T/M (ratio tumor to muscle) (LNCaP tumor-bearing mice [2]; 2 h after i.v. injection): 97.0 | blood (LNCaP tumor-bearing mice [2]; 2 h after i.v. injection): 0.06 ± 0.01 %ID g^−1 | kidneys (LNCaP tumor-bearing mice [2]; 2 h after i.v. injection): 2.70 ± 0.20 %ID g^−1 | large intestine (LNCaP tumor-bearing mice [2]; 2 h after i.v. injection): 0.12 ± 0.05 %ID g^−1 | liver (LNCaP tumor-bearing mice [2]; 2 h after i.v. injection): 0.08 ± 0.00 %ID g^−1 | muscle (LNCaP tumor-bearing mice [2]; 2 h after i.v. injection): 0.21 ± 0.13 %ID g^−1 | small intestine (LNCaP tumor-bearing mice [2]; 2 h after i.v. injection): 0.32 ± 0.13 %ID g^−1 | spleen (LNCaP tumor-bearing mice [2]; 2 h after i.v. injection): 0.19 ± 0.06 %ID g^−1 | stomach (LNCaP tumor-bearing mice [2]; 2 h after i.v. injection): 0.10 ± 0.04 %ID g^−1 | tumor (LNCaP tumor-bearing mice [2]; 2 h after i.v. injection): 20.24 ± 5.52 %ID g^−1 | urine (LNCaP tumor-bearing mice [2]; 2 h after i.v. injection): 96.08 ± 0.53 %ID | T/B (ratio tumor to blood) (LNCaP tumor-bearing mice [2]; 4 h after i.v. injection): 312.9 | T/K (ratio tumor to kidneys) (LNCaP tumor-bearing mice [2]; 4 h after i.v. injection): 9.7 | T/M (ratio tumor to muscle) (LNCaP tumor-bearing mice [2]; 4 h after i.v. injection): 324.4 | blood (LNCaP tumor-bearing mice [2]; 4 h after i.v. injection): 0.05 ± 0.03 %ID g^−1 | kidneys (LNCaP tumor-bearing mice [2]; 4 h after i.v. injection): 1.70 ± 0.13 %ID g^−1 | large intestine (LNCaP tumor-bearing mice [2]; 4 h after i.v. injection): 0.32 ± 0.16 %ID g^−1 | liver (LNCaP tumor-bearing mice [2]; 4 h after i.v. injection): 0.08 ± 0.01 %ID g^−1 | muscle (LNCaP tumor-bearing mice [2]; 4 h after i.v. injection): 0.05 ± 0.02 %ID g^−1 | small intestine (LNCaP tumor-bearing mice [2]; 4 h after i.v. injection): 0.30 ± 0.14 %ID g^−1 | spleen (LNCaP tumor-bearing mice [2]; 4 h after i.v. injection): 0.17 ± 0.06 %ID g^−1 | stomach (LNCaP tumor-bearing mice [2]; 4 h after i.v. injection): 0.11 ± 0.05 %ID g^−1 | tumor (LNCaP tumor-bearing mice [2]; 4 h after i.v. injection): 16.40 ± 6.88 %ID g^−1 | urine (LNCaP tumor-bearing mice [2]; 4 h after i.v. injection): 95.47 ± 3.07 %ID | T/B (ratio tumor to blood) (LNCaP tumor-bearing mice [2]; 6 h after i.v. injection): 131.2 | T/K (ratio tumor to kidneys) (LNCaP tumor-bearing mice [2]; 6 h after i.v. injection): 8.4 | T/M (ratio tumor to muscle) (LNCaP tumor-bearing mice [2]; 6 h after i.v. injection): 983.7 | blood (LNCaP tumor-bearing mice [2]; 6 h after i.v. injection): 0.06 ± 0.01 %ID g^−1 | kidneys (LNCaP tumor-bearing mice [2]; 6 h after i.v. injection): 0.98 ± 0.38 %ID g^−1 | large intestine (LNCaP tumor-bearing mice [2]; 6 h after i.v. injection): 0.20 ± 0.02 %ID g^−1 | liver (LNCaP tumor-bearing mice [2]; 6 h after i.v. injection): 0.31 ± 0.07 %ID g^−1 | muscle (LNCaP tumor-bearing mice [2]; 6 h after i.v. injection): 0.01 ± 0.01 %ID g^−1 | small intestine (LNCaP tumor-bearing mice [2]; 6 h after i.v. injection): 0.14 ± 0.11 %ID g^−1 | spleen (LNCaP tumor-bearing mice [2]; 6 h after i.v. injection): 1.05 ± 0.29 %ID g^−1 | stomach (LNCaP tumor-bearing mice [2]; 6 h after i.v. injection): 0.04 ± 0.03 %ID g^−1 | tumor (LNCaP tumor-bearing mice [2]; 6 h after i.v. injection): 8.28 ± 1.97 %ID g^−1 | urine (LNCaP tumor-bearing mice [2]; 6 h after i.v. injection): 96.57 ± 2.44 %ID | T/B (ratio tumor to blood) (LNCaP tumor-bearing mice [2]; 24 h after i.v. injection): 257.6 | T/K (ratio tumor to kidneys) (LNCaP tumor-bearing mice [2]; 24 h after i.v. injection): 29.0 | T/M (ratio tumor to muscle) (LNCaP tumor-bearing mice [2]; 24 h after i.v. injection): 387.4 | blood (LNCaP tumor-bearing mice [2]; 24 h after i.v. injection): 0.03 ± 0.03 %ID g^−1 | kidneys (LNCaP tumor-bearing mice [2]; 24 h after i.v. injection): 0.30 ± 0.12 %ID g^−1 | large intestine (LNCaP tumor-bearing mice [2]; 24 h after i.v. injection): 0.41 ± 0.15 %ID g^−1 | liver (LNCaP tumor-bearing mice [2]; 24 h after i.v. injection): 0.04 ± 0.01 %ID g^−1 | muscle (LNCaP tumor-bearing mice [2]; 24 h after i.v. injection): 0.02 ± 0.02 %ID g^−1 | small intestine (LNCaP tumor-bearing mice [2]; 24 h after i.v. injection): 0.20 ± 0.20 %ID g^−1 | spleen (LNCaP tumor-bearing mice [2]; 24 h after i.v. injection): 0.12 ± 0.06 %ID g^−1 | stomach (LNCaP tumor-bearing mice [2]; 24 h after i.v. injection): 0.06 ± 0.05 %ID g^−1 | tumor (LNCaP tumor-bearing mice [2]; 24 h after i.v. injection): 8.33 ± 3.09 %ID g^−1 | urine (LNCaP tumor-bearing mice [2]; 24 h after i.v. injection): 94.79 ± 7.51 %ID | T/B (ratio tumor to blood) (LNCaP tumor-bearing mice [2]; 48 h after i.v. injection): 193.0 | T/K (ratio tumor to kidneys) (LNCaP tumor-bearing mice [2]; 48 h after i.v. injection): 68.4 | T/M (ratio tumor to muscle) (LNCaP tumor-bearing mice [2]; 48 h after i.v. injection): 351.4 | blood (LNCaP tumor-bearing mice [2]; 48 h after i.v. injection): 0.04 ± 0.02 %ID g^−1 | kidneys (LNCaP tumor-bearing mice [2]; 48 h after i.v. injection): 0.12 ± 0.03 %ID g^−1 | large intestine (LNCaP tumor-bearing mice [2]; 48 h after i.v. injection): 0.84 ± 0.56 %ID g^−1 | liver (LNCaP tumor-bearing mice [2]; 48 h after i.v. injection): 0.17 ± 0.07 %ID g^−1 | muscle (LNCaP tumor-bearing mice [2]; 48 h after i.v. injection): 0.02 ± 0.01 %ID g^−1 | small intestine (LNCaP tumor-bearing mice [2]; 48 h after i.v. injection): 0.14 ± 0.07 %ID g^−1 | spleen (LNCaP tumor-bearing mice [2]; 48 h after i.v. injection): 0.97 ± 0.62 %ID g^−1 | stomach (LNCaP tumor-bearing mice [2]; 48 h after i.v. injection): 0.03 ± 0.03 %ID g^−1 | tumor (LNCaP tumor-bearing mice [2]; 48 h after i.v. injection): 8.03 ± 7.31 %ID g^−1 | urine (LNCaP tumor-bearing mice [2]; 48 h after i.v. injection): 97.75 ± 0.34 %ID | logD [3]: −5.18 ± 0.04 | Kd (PSMA antigen; LNCaP cell membranes, 2 h, 37 °C): 4.5 ± 2.1 nM | Specific Binding (PSMA antigen; total binding on LNCaP minus non-specific binding on PC3 membranes): 99.9 ± 0.1%
Structure (SMILES): O=C([O-])CN1CCN(CC(=O)[O-])CCN(CC(=O)NCC2CCC(C(=O)NC(Cc3c[nH]c4ccccc34)C(=O)NCCCCC(NC(=O)NC(CCC(=O)O)C(=O)O)C(=O)O)CC2)CCN(CC(=O)[O-])CC1.[90Y+3] (centres unmarked) [[^90Y]Y-PSMA-D4]
in vivo CLI tumor visualization (LNCaP tumor-bearing mice [1]): excellent tumor visualization | Internalization (LNCaP cells): 35.4% | Total Binding (LNCaP cells): 16.8%
